Measured values published in patent US6011008A, “Conjugates of biologically active substances” (priority 1998, dated 2000).

Assays:
Escherichia coli = Escherichia coli agar plates, after 24 hours of incubation
Procedure: The antimicrobial activity of the conjugates was assayed by a cup method^(9) (agar plate method) using Escherichia coli agar plates and measuring the zone of growth inhibition.

[1] = In vitro release (dialysis tubing method); type: physicochemical; conditions: for drug released from the dialysis tube: after 5 hours, buffer pH 7.4, 37° C.; for release of the conjugated drug: after 24 hours, buffer pH 7.4 at 37° C.
Procedure: A solution of the Schiff base or the amine conjugates (100 mg in 5 ml phosphate buffer pH7.4) was placed into a cellulose dialysis tubing of 12,000 MW cut off and the bag was placed into a 100 ml. buffer solution at 37° C. The drug release to the solution was monitored by UV absorption at 280 nm, unless otherwise indicated.
The release of DOX from the AG conjugates was determined using dialysis tubing as described above. The DOX-AG imine conjugate, the DOX-AG amine conjugate and a solution of the native drug were studied. The amount of DOX found in the solution was 2, 5, 8, 10 and 12% of the total dose after 2, 4, 7, 12 and 32 hours, respectively.
The Mitomycin release into the solution was measured as described above. The amount of drug found in the solution was 1, 2, 4, 5 and 8% of the total dose after 2, 4, 7, 12 and 32 hours, respectively.
In vitro release of Somatostatin was determined as described in the Methods and the somatostatin concentration was determined by the Folin-Lowry method for peptide analysis^(10).
Insulin was conjugated to oxidized AG (50 mg with 100 mg pure oxidized AG) using the method described above for somatostatin. The conjugation yield was about 75% as determined by nitrogen analysis and the Folin-Lowry method. The Schiff base derivative released about 25% of its drug content after 24 hours in phosphate buffer solution at […].

E. Coli = experiment: Antimicrobial activity, filter paper on seeded agar plate; type: cell-based; conditions: 24 hours at 37° C., 6 mm filter paper, equivalent amounts of the drug
Procedure: (§1) The antimicrobial activity of these conjugates was determined as described above. Saline solutions of equivalent amounts of the drug in free form or the imine or amine AG conjugates were absorbed onto a circular filter paper (6 mm in diameter) and placed on a seeded agar plate with Staphylococcus Aureus (10^5 /ml) and E. Coli incubated for 24 hours at 37° C. […] Similar results were obtained for the Polymyxin derivatives.

Staphylococcus Aureus = experiment: as above; type: cell-based; conditions: Staphylococcus Aureus (10^5 /ml), 24 hours at 37° C., 6 mm filter paper, equivalent amounts of the drug
Procedure: as §1

Q: Which inhibition zone (Escherichia coli) does the source give for `CO[C@@]12[C@H](COC(N)=O)C3=C(C(=O)C(C)=C(N)C3=O)N1C[C@@H]1N[C@@H]12` [Mitomycin C] here?
A: Its inhibition zone is greater than 10 mm.

Q: With “Somatostatin-AG imine conjugate: Somatostatin conjugated to pure oxidized AG via imine bond” as the molecule, how does the “drug released from the dialysis tube” value [1] read?
A: Its value is “about 5%”.

Q: What about the “release of the conjugated drug” value [1] of the same molecule?
A: Its value is roughly 18%.

Q: Which “release of the conjugated drug” value [1] does the source give for “Somatostatin-AG amine conjugate: Somatostatin-AG Schiff base hydrogenated to the amine conjugate using NaBH4” here?
A: Its value is “did not release any”.

Q: With gentamicin as the molecule, how does the inhibition zone (E. Coli) read?
A: Its inhibition zone is greater than 10 mm.

Q: What about the inhibition zone (Staphylococcus Aureus) of the same molecule?
A: Its inhibition zone is greater than 10 mm.

Q: Which inhibition zone (E. Coli) does the source give for `NC[C@H]1O[C@H](O[C@H]2[C@H](O)[C@@H](O[C@H]3O[C@H](CO)[C@@H](O)[C@H](N)[C@H]3O)[C@H](N)C[C@@H]2N)[C@H](N)C[C@@H]1O` [tobramicin] here?
A: Its inhibition zone is greater than 10 mm.

Q: What about the inhibition zone (Staphylococcus Aureus) of the same molecule?
A: Its inhibition zone is greater than 10 mm.

Q: Which “drug released from the dialysis tube” value [1] does the source give for `COc1cccc2c1C(=O)c1c(O)c3c(c(O)c1C2=O)C[C@@](O)(C(=O)CO)C[C@@H]3O[C@H]1C[C@H](N)[C@H](O)[C@H](C)O1` [DOX, Doxorubicin] here?
A: Its value is 90%.

Q: For “Insulin-AG Schiff base derivative: Insulin conjugated to pure oxidized AG, Schiff base”, which “release of drug content” value ([1]; after 24 hours in phosphate buffer solution at […].) is on record?
A: The value was “about 25%”.
